{"source": "patent US20090227606A1", "about": "“Methods for Preventing or Treating Acute and Chronic Pain” (priority 2006, published 2009)", "key": {"GLAST": {"tested_on": "GLAST", "assay": "Western blot of ipsilateral lumbar spinal cord, GLAST protein", "format": "in vivo, rat", "settings": "day 12 post-transection", "method": "(§1) Tissue was collected from 4-5 rats/group on postoperative days 4 or 12. In order to obtain both mRNA and protein from the same tissue sample, the L5 region of the spinal cord (ipsilateral to the injury), was isolated and placed in PBS supplemented with protease inhibitor cocktail (1:1000, Sigma Chemical Co., St. Louis, Mo.) and RNase inhibitor (0.75 U/μL Ambion, Austin, Tex.). Samples were sonicated in five one-second bursts at half-maximal power, centrifuged at 6500 rpm for 15 minutes at 4° C. Protein-containing supernatants were collected and stored at −80° C. until further processing by Western blot analysis. The pellet was treated with TRIzol reagent (Invitrogen, Carlsbad, Calif.) for the extraction of total RNA according to the manufacturer's specifications.\n(§2) Protein obtained from L5 lumbar spinal cord was quantified using the Lowry method (DC assay, Bio-Rad, Hercules, Calif.). Forty micrograms of protein and standard protein markers were subjected to SDS polyacrylamide gel electrophoresis (7.5% gel, Bio-Rad, Hercules, Calif.) and id transferred to polyvinylidene difluoride (PVDF, Bio-Rad, Hercules, Calif.) filters. Nonspecific binding was blocked by incubation with 5% milk/PBS-T at room temperature for 1 hour followed by incubation overnight at 4° C. with monoclonal guinea pig anti-GLT-1 or guinea pig anti-GLAST (1:2500, Chemicon). […]"}, "adenosine transport": {"tested_on": "adenosine transport", "settings": "literature; cited from earlier work"}, "GLT-1": {"tested_on": "GLT-1", "assay": "Western blot of ipsilateral lumbar spinal cord, GLT-1 protein", "format": "in vivo, rat", "settings": "day 12 post-transection", "method": "as §1, §2"}, "[1]": {"tested_on": "L5 spinal nerve transected rats", "assay": "Mechanical allodynia after L5 spinal nerve transection in rats", "format": "in vivo, rat", "method": "Male Sprague Dawley rats (Harlan, Indianapolis, Ind.) weighing 150-175 g at the start of surgery were housed individually and maintained in a 12:12 light/dark cycle with ad libitum access to food and water. The animals were allowed to habituate to the housing facilities for 1 week before experiments began. Behavioral studies were performed in a quiet room between the hours of 7:00 and 10:00 A.M. The Institutional Animal Care and Use Committee at Dartmouth College approved all procedures in this study. Efforts were made to limit animal distress and use the minimum number of animals necessary to achieve statistical significance, in accord with guidelines set forth by the International Association for the Study of Pain.\nUnilateral mononeuropathy was produced according to the method described by Colburn et al. (1999. Exp. Neurol. 157:289-304). Briefly, rats were anesthetized by inhalation of halothane in an O2 carrier (induction, 4%; maintenance, 2%). […] The L6 transverse process was partially removed, exposing the L4 and L5 spinal nerves. The L5 spinal nerve was identified, separated, lifted, and transected, followed by removal of a 3-mm distal segment of nerve to prevent reconnection. […]\nMechanical sensitivity to non-noxious stimuli was measured by applying 2 g and 12 g von Frey filaments (Stoelting, Wood Dale, Ill.) to the plantar surface of the ipsilateral hind paw (n=8-12/group). […]"}, "GLT-1 mRNA": {"tested_on": "GLT-1 mRNA", "assay": "Real Time RT-PCR of cultured astrocytes, GLT-1 mRNA", "format": "cell-based, rat", "method": "After approximately 14 days (2 days after subplating into plates, DIV 14) astrocytes had formed a confluent monolayer. […] Phase contrast microscopy was then carried out in order to assess the morphology of cells after the various treatments. Length of astrocyte processes was quantified by measuring all processes in 2-3 phase contrast images/group by an independent observer, blinded to the treatment groups using Image J v1.34s (National Institutes of Health, Bethesda, Md.).\nTotal RNA was isolated from astrocyte cultures using the Qiagen RNeasy mini-kit (Qiagen Inc., Valencia, Calif.) according to the manufacturer's protocol for isolation of total RNA from animal cells. Reverse transcription (RT) was carried out using the high-capacity cDNA archive kit (Applied Biosystems, Foster City, Calif.) according to the vendor's protocol. Real-time RT-PCR reactions were carried out in a total reaction volume of 25 μL containing a final concentration of 1.5 U Platinum Taq DNA polymerase (Invitrogen Corporation, Carlsbad, Calif.); 20 mM Tris HCl (pH 8.4); 50 mM KCl; 3 mM MgCl2; 200 μM dGTP, dCTP, and dATP; 400 μM dUTP and 1 U of UDG (uracyl DNA glycosylase); 900 nM of forward and reverse primers; 300 nM Taqman probe; and 5 μL of cDNA (50 ng) from the RT step. The iCycler™ Multicolor Real-Time PCR detection system (Bio-Rad Laboratories, Hercules, Calif.) was used to quantify PCR product. The fluorescence and threshold values (CT) obtained were used to compare the relative amount of target mRNA in experimental groups to those of controls using the 2^−ΔΔC^T method (Livak, K. J. and T. D. Schmittgen. 2001. Methods 25:402-408). Each experiment was run twice and samples were run in duplicate. For each sample, the mean CT value for the control gene (GAPDH) was then subtracted from the mean CT value for the gene of interest (GLT-1, GLAST) to obtain a ΔCT value. The ΔCT values for the control group (untreated) were then averaged and subtracted from the ΔCT for the experimental groups to obtain the ΔΔCT. The relative fold change from control was then expressed by calculation of 2^−ΔΔC^T for each sample and the results are expressed as the group mean fold change±SEM."}}, "note": "Entries after “also recorded” stand apart in the source; their conditions may differ.", "data": [{"smiles": "CCCn1cnc2c1c(=O)n(CCCCC(C)=O)c(=O)n2C", "note": "[propentofylline]", "values": [{"measurement": "GLAST protein", "setting": "GLAST", "result": "further decreased by propentofylline treatment; also recorded: slight decrease"}, {"measurement": "adenosine transport", "setting": "adenosine transport", "result": "inhibit adenosine transport"}, {"measurement": "GLT-1 protein compared to L5 transection alone", "setting": "GLT-1", "result": "reversed with propentofylline treatment; also recorded: significantly elevated"}, {"measurement": "mechanical allodynia (paw withdrawals to 12 g von Frey filament)", "setting": "[1]; 10 μg daily via lumbar puncture, from one hour prior to transection, vs. L5 saline", "result": "significant decrease in mechanical allodynia; also recorded: robustly inhibited the development of mechanical allodynia at all time points tested"}, {"measurement": "mechanical allodynia compared with normal group", "setting": "[1]; from day 5 onward (day 5, 7, 9 and 12), P>0.05", "result": "no longer discernable from the normal group"}, {"measurement": "increase in GLT-1 mRNA", "setting": "GLT-1 mRNA; day 3, high dose", "result": 3, "unit": "fold"}, {"measurement": "induction of GLT-1 mRNA", "setting": "GLT-1 mRNA; day 7, high dose", "result": 20, "unit": "fold"}, {"measurement": "GLT-1 mRNA level, in words", "setting": "GLT-1 mRNA; propentofylline 10, 100, 1000 μM, db-cAMP 250 μM, relative to GAPDH", "result": "enhancement of GLT-1 and GLAST mRNA levels in a dose-dependent manner; also recorded: dose-dependently induced GLT-1 and GLAST at the mRNA level"}]}]}
